This experiment relates to HeLa cells. Description: GCaMP3-ML1 lysosomal Ca2+ release imaging. It counts as cell-based. The conditions noted are these: GPN 200 μM; ionomycin 1 μM.

Peptide text beside a SMILES is read from it. * marks the point of attachment. βNA = c1ccc2cc(N*)ccc2c1

Protocol: HeLa cells were transfected with perilysosomal GCaMP3-ML1 calcium probe, and Ratiometric image (474 and 410 nm excitation) was obtained.
GCaMP3 Ca2+ Imaging. HeLa cells were grown on 15 mm coverslips and transfected with plasmid encoding the perilysosomal-localized ML1-GCaMP3 calcium probes.

`NCC(=O)N[C@@H](Cc1ccccc1)C(=O)Nc1ccc2ccccc2c1` [GPN] (H-Gly-Phe-βNA): the “lysosomal Ca2+ release” value is given as “induced lysosomal Ca2+ release”.

Take `C[C@H](CCC(=O)O)C[C@H](C)C[C@H](C)C(=O)/C=C(\O)[C@H](C)C[C@H](C)C/C=C/[C@@H](C)[C@@H](O)[C@@H](C)[C@@H](O)C[C@@H]1CC[C@@](C)([C@H]2CC[C@@](C)([C@@H](C)O)O2)O1` [ionomycin]: the “lysosomal Ca2+ release” value is listed as “induced lysosomal Ca2+ release”.

These data come from patent US10881642B2, “Autophagy enhancer and use thereof” (Industry-Academic Cooperation Foundation, Yonsei University, priority 2016, dated 2021).
